Measured values published in patent publication US9598421B2, “Imidazopyridazine compounds” (Pfizer Inc., priority 2014, dated 2017).

What was measured:
Assay type in all cases: biochemical
[1] = target: Human PDE4D (Homo sapiens (Human), UniProt Q08499); test: PDE4D Scintillation Proximity Assay (SPA), inhibition of enzyme activity; settings: human recombinant enzyme, 1 μM cAMP substrate, 30 min at 25° C., geometric mean of 2-9 determinations unless otherwise indicated, read-out: Human PDE4D FL
[2] = target: Human PDE4A (Homo sapiens (Human), UniProt P27815); test: PDE4A Scintillation Proximity Assay (SPA), inhibition of enzyme activity; settings: human recombinant enzyme, 1 μM cAMP substrate, 30 min at 25° C., geometric mean of 2-9 determinations unless otherwise indicated, read-out: Human PDE4A FL
Description: (§1) The PDE4A3, PDE4B1, PDE4C1 and PDE4D3 assays use the Scintillation Proximity Assay (SPA) technology to measure the inhibition of human recombinant PDE4A1, PDE4B3, PDE4C1, and PDE4D3 enzyme activity by compounds in vitro. The PDE4A1, PDE4B3, PDE4C1, and PDE4D3 assays are run in parallel using identical parameters, except for the concentration of enzyme (80 pM PDE4A3, 40 pM PDE4B3, 40 pM PDE4C1 and 10 pM PDE4D). […] Reactions are incubated for 30 min at 25° C. The addition of 20 uL of 8 mg/ml yitrium silicate SPA beads (Perkin Elmer) stops the reaction. The plates are sealed (TopSeal, Perkin Elmer) and the beads are allowed to settle for 8 hrs, after which they are read on the Trilux Microbeta overnight.

[3] = target: Human PDE4C (Homo sapiens (Human), UniProt Q08493); test: PDE4C Scintillation Proximity Assay (SPA), inhibition of enzyme activity; settings: human recombinant enzyme, 1 μM cAMP substrate, 30 min at 25° C., geometric mean of 2-9 determinations unless otherwise indicated, read-out: Human PDE4C FL
Chain of Human PDE4C (Q08493 2-712): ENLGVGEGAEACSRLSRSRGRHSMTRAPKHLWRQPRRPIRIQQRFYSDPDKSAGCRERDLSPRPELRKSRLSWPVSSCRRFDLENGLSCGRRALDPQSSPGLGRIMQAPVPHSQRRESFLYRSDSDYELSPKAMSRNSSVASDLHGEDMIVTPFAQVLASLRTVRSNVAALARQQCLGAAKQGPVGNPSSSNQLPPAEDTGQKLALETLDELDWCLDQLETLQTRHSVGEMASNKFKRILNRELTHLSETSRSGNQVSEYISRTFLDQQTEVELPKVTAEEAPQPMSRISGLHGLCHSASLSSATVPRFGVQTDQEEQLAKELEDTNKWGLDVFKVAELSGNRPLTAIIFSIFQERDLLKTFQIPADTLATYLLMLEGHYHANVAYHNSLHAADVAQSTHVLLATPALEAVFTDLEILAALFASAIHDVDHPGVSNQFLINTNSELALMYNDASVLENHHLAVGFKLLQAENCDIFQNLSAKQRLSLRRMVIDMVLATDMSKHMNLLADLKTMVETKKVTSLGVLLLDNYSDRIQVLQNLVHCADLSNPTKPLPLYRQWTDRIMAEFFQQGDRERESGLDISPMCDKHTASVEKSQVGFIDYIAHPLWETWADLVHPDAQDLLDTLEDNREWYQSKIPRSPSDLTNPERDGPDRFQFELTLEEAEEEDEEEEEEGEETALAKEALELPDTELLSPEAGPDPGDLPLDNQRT
Description: as §1

Chain of Human PDE4A (P27815 other isoform, or with tags, fused parts or gaps): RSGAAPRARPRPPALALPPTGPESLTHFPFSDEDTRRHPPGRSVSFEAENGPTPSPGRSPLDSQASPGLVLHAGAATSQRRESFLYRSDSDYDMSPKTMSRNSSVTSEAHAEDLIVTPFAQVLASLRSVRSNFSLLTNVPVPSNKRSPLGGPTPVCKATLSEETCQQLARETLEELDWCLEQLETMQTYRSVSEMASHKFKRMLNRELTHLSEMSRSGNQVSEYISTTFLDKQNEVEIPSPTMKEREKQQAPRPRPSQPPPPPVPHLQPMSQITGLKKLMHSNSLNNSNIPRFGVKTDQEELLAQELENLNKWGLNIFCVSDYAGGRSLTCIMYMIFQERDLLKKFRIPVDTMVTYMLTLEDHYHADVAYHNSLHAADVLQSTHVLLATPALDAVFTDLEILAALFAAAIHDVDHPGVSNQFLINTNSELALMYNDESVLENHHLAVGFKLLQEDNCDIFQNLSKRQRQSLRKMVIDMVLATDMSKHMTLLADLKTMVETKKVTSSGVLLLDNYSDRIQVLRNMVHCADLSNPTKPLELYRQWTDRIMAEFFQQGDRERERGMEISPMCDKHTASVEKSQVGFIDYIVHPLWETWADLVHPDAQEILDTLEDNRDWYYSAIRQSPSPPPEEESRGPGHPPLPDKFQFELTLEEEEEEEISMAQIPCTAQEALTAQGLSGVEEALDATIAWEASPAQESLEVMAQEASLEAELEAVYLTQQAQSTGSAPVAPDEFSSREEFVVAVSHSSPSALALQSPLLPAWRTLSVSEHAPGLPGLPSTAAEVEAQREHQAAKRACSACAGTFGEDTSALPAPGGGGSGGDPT
Chain of Human PDE4D (Q08499 186-808): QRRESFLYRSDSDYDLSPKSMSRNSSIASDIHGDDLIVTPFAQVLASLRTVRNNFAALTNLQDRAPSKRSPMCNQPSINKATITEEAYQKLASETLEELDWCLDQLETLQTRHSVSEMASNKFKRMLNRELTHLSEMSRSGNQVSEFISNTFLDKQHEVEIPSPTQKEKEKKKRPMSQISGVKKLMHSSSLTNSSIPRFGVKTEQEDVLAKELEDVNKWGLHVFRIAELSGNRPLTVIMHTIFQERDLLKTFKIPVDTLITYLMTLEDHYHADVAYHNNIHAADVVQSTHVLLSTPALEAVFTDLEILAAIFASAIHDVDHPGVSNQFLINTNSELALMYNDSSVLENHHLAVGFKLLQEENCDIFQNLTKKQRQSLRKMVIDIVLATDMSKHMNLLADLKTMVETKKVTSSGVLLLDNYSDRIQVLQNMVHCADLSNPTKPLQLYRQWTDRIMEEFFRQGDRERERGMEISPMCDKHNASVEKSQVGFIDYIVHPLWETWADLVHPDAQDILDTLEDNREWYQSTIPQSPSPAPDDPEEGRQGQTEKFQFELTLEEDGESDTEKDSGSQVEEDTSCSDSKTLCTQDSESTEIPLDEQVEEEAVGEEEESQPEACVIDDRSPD

| SMILES | IC50 [1] [nM] | IC50 [2] [nM] | IC50 [3] [nM] |
| --- | --- | --- | --- |
| O=C(NC1CC1)c1nc2cccnn2c1-c1ccc2ocnc2c1 [Example 39, 3-(1,3-benzoxazol-5-yl)-N-cyclopropylimidazo[1,2-b]pyridazine-2-carboxamide] | 3820 | 14.8 | 67.8 |
| O=C(NC1CC1)c1nc2cccnn2c1-c1ccc(Cl)cc1F [Example 40, 3-(4-chloro-2-fluorophenyl)-N-cyclopropylimidazo[1,2-b]pyridazine-2-carboxamide] | 9020 | 19.6 | 58.1 |
| O=C(NC1CC1)c1nc2cccnn2c1-c1ccnc(C(F)(F)F)c1 [Example 42, N-cyclopropyl-3-[2-(trifluoromethyl)pyridin-4-yl]imidazo[1,2-b]pyridazine-2-carboxamide] | < 12200 | 415 | 357 |
| O=C(N[C@@H]1C[C@@H]1F)c1nc2cccnn2c1-c1ccc(Cl)cc1 [Example 46, 3-(4-chlorophenyl)-N-[(1R,2S)-2-fluorocyclopropyl]imidazo[1,2-b]pyridazine-2-carboxamide] | 971 | 15.2 | 39.3 |
| O=C(c1nc2cccnn2c1-c1cc(F)c(Cl)c(F)c1)N1CCC1 [Example 47, azetidin-1-yl[3-(4-chloro-3,5-difluorophenyl)imidazo[1,2-b]pyridazin-2-yl]methanone] | 334 | 7.37 | 23.9 |
| CCCNC(=O)c1nc2cccnn2c1-c1cncc(Cl)c1 [Example 48, 3-(5-chloropyridin-3-yl)-N-propylimidazo[1,2-b]pyridazine-2-carboxamide] | > 7670 | 768 | 212 |
| O=C(c1nc2cccnn2c1-c1ccc2c(c1)CCO2)N1CCC1 [Example 50, azetidin-1-yl[3-(2,3-dihydro-1-benzofuran-5-yl)imidazo[1,2-b]pyridazin-2-yl]methanone] | 3140 | 28.1 | 235 |
| O=C(c1nc2cccnn2c1-c1ccc(Cl)cc1F)N1CCC1 [Example 52, azetidin-1-yl[3-(4-chloro-2-fluorophenyl)imidazo[1,2-b]pyridazin-2-yl]methanone] | 5510 | 24.3 | 113 |
| Cc1cc(-c2c(C(=O)N3CCC3)nc3cccnn23)cc(C)c1F [Example 53, azetidin-1-yl[3-(4-fluoro-3,5-dimethylphenyl)imidazo[1,2-b]pyridazin-2-yl]methanone] | 3110 | 17.8 | 153 |
| Cc1ccc(-c2c(C(=O)N3CCC3)nc3cccnn23)c(F)c1 [Example 54, azetidin-1-yl[3-(2-fluoro-4-methylphenyl)imidazo[1,2-b]pyridazin-2-yl]methanone] | > 20000 | 103 | 136 |
| COc1ccc(-c2c(C(=O)N3CCC3)nc3cccnn23)cc1F [Example 55, azetidin-1-yl[3-(3-fluoro-4-methoxyphenyl)imidazo[1,2-b]pyridazin-2-yl]methanone] | > 20900 | 176 | > 1550 |
| O=C(c1nc2cccnn2c1-c1ccc(Cl)cc1)N1CC(F)C1 [Example 60, [3-(4-chlorophenyl)imidazo[1,2-b]pyridazin-2-yl](3-fluoroazetidin-1-yl)methanone] | > 4930 | 269 | 287 |
| O=C(c1nc2cccnn2c1-c1ccc(Cl)cc1)N1CC(F)(F)C1 [Example 61, [3-(4-chlorophenyl)imidazo[1,2-b]pyridazin-2-yl](3,3-difluoroazetidin-1-yl)methanone] | 1930 | 144 | 126 |
| O=C(N[C@@H]1C[C@@H]1F)c1nc2cccnn2c1-c1ccc(Cl)cc1F [Example 68, 3-(4-chloro-2-fluorophenyl)-N-[(1R,2S)-2-fluorocyclopropyl]imidazo[1,2-b]pyridazine-2-carboxamide] | 2620 | 10.6 | 25.1 |
| Cc1cc(Cl)ccc1-c1c(C(=O)N[C@@H]2C[C@@H]2F)nc2cccnn12 [Example 70, 3-(4-chloro-2-methylphenyl)-N-[(1R,2S)-2-fluorocyclopropyl]imidazo[1,2-b]pyridazine-2-carboxamide] | 5760 | 36.4 | 90 |
| Cc1ccc(-c2c(C(=O)N[C@@H]3C[C@@H]3F)nc3cccnn23)cc1Cl [Example 71, 3-(3-chloro-4-methylphenyl)-N-[(1R,2S)-2-fluorocyclopropyl]imidazo[1,2-b]pyridazine-2-carboxamide] | 113 | < 0.669 | 2 |
| O=C(NC1CC1)c1nc2cccnn2c1-c1ccnc(OC(F)F)c1 [Example 75, N-cyclopropyl-3-[2-(difluoromethoxy)pyridin-4-yl]imidazo[1,2-b]pyridazine-2-carboxamide] | 104 | 10.5 | 24.9 |

| SMILES | IC50 [1] [nM] | IC50 [2] [nM] | IC50 [3] [nM] |
| --- | --- | --- | --- |
| O=C(c1nc2cccnn2c1-c1ccnc(OC(F)F)c1)N1CCC1 [Example 76, azetidin-1-yl{3-[2-(difluoromethoxy)pyridin-4-yl]imidazo[1,2-b]pyridazin-2-yl}methanone] | 94.5 | 7.09 | 22.2 |
| O=C(c1nc2cccnn2c1-c1ccc2ncoc2c1)N1CCC1 [Example 77, azetidin-1-yl[3-(1,3-benzoxazol-6-yl)imidazo[1,2-b]pyridazin-2-yl]methanone] | > 16600 | 46.1 | 186 |
| N#Cc1ccc(-c2c(C(=O)NC3CC3)nc3cccnn23)c(F)c1 [Example 79, 3-(4-cyano-2-fluorophenyl)-N-cyclopropylimidazo[1,2-b]pyridazine-2-carboxamide] | > 25400 | 48.8 | 297 |
| O=C(c1nc2cccnn2c1-c1ccc(Cl)c(Cl)c1)N1CCC1 [Example 83, azetidin-1-yl[3-(3,4-dichlorophenyl)imidazo[1,2-b]pyridazin-2-yl]methanone] | 495 | 6.21 | 40 |
| CCNC(=O)c1nc2cccnn2c1-c1ccc(Cl)cc1 [Example 85, 3-(4-chlorophenyl)-N-ethylimidazo[1,2-b]pyridazine-2-carboxamide] | 6700 | 25.6 | 47.2 |
| O=C(NC1CC1)c1nc2cccnn2c1-c1ccc(OC(F)F)nc1 [Example 87, N-cyclopropyl-3-[6-(difluoromethoxy)pyridin-3-yl]imidazo[1,2-b]pyridazine-2-carboxamide] | 6790 | 240 | 397 |
| O=C(NC1CC1)c1nc2cccnn2c1-c1ccc2ncoc2c1 [Example 88, 3-(1,3-benzoxazol-6-yl)-N-cyclopropylimidazo[1,2-b]pyridazine-2-carboxamide] | 10400 | 45 | 136 |
| Cc1cc2ncnn2cc1-c1c(C(=O)NC2CC2)nc2cccnn12 [Example 89, N-cyclopropyl-3-(7-methyl[1,2,4]triazolo[1,5-a]pyridin-6-yl)imidazo[1,2-b]pyridazine-2-carboxamide] | > 17200 | 829 | 3760 |
| N#Cc1ccc(-c2c(C(=O)NC3CC3)nc3cccnn23)cc1F [Example 90, 3-(4-cyano-3-fluorophenyl)-N-cyclopropylimidazo[1,2-b]pyridazine-2-carboxamide] | 2620 | 21.4 | 25.5 |
| N#Cc1cc(F)c(-c2c(C(=O)NC3CC3)nc3cccnn23)cc1F [Example 92, 3-(4-cyano-2,5-difluorophenyl)-N-cyclopropylimidazo[1,2-b]pyridazine-2-carboxamide] | > 1440 | 5.52 | 42.5 |
| CNC(=O)c1nc2cccnn2c1-c1cc(F)c(Cl)cc1F [Example 93, 3-(4-chloro-2,5-difluorophenyl)-N-methylimidazo[1,2-b]pyridazine-2-carboxamide] | 4110 | 62.9 | 134 |
| CNC(=O)c1nc2cccnn2c1-c1ccc(Cl)c(F)c1 [Example 94, 3-(4-chloro-3-fluorophenyl)-N-methylimidazo[1,2-b]pyridazine-2-carboxamide] | 5380 | 24.9 | 65 |
| CCNC(=O)c1nc2cccnn2c1-c1cc(F)c(Cl)cc1F [Example 96, 3-(4-chloro-2,5-difluorophenyl)-N-ethylimidazo[1,2-b]pyridazine-2-carboxamide] | 908 | 4.58 | 29.2 |
| CCNC(=O)c1nc2cccnn2c1-c1cc(F)c(C#N)cc1C [Example 98, 3-(4-cyano-5-fluoro-2-methylphenyl)-N-ethylimidazo[1,2-b]pyridazine-2-carboxamide] | 3320 | 26.6 | 107 |
| O=C(Nc1ncccn1)c1nc2cccnn2c1-c1ccc(Cl)cc1 [Example 101, 3-(4-chlorophenyl)-N-(pyrimidin-2-yl)imidazo[1,2-b]pyridazine-2-carboxamide] | > 25900 | 268 | 1180 |
| O=C(NCC1CC1)c1nc2cccnn2c1-c1ccc(Cl)cc1 [Example 102, 3-(4-chlorophenyl)-N-(cyclopropylmethyl)imidazo[1,2-b]pyridazine-2-carboxamide] | 5010 | 59.9 | 76 |
| O=C(NC1CC1)c1nc2cccnn2c1-c1cc(F)c(Cl)c(F)c1 [Example 104, 3-(4-chloro-3,5-difluorophenyl)-N-cyclopropylimidazo[1,2-b]pyridazine-2-carboxamide] | 145 | < 0.488 | 4.69 |
